Reference: US20210322509A1, “Methods for Reducing Perinatal Morbidity and / or Mortality” (CHU SAINTE-JUSTINE, priority 2016, published 2021)
Non-standard residues stand in square brackets, D forms with d. Residues, ends and D or L forms follow the SMILES beside them. ξ: configuration not given here. dThr(3ξ) = CC(O)[C@@H](N)C(=O)O

Tests used:
[1] = test system: pups from IL-1β-treated dams; assay: Behavioral test (spontaneous open field activity); type: in vivo, mice; settings: PT15
Description: Behavioral test (Spontaneous openfield activity). Each animal (PND15 and PND28) was gently placed in the center of the openfield, allowed to freely explore undisturbed for 10 min, after which the animal was removed, the arena cleaned with 70% ethanol and dried prior to testing the next animal. Locomotor activity was indexed as the total distance travelled (cm). The evaluator was blinded to the groups. All movements were monitored and quantified using Smart software.

[2] = test system: Il1a, Il1b, Il6 and Tnfa mRNA in fetal head; assay: LPS-induced cytokine gene expression in fetal brain (qPCR); type: in vivo, C57Bl/6 mice
Description: FIGS. 10A to 10D show the induction of pro-inflammatory cytokines in fetal brain after maternal LPS administration is suppressed by compound 2 (cmpd2) in mice. C57Bl/6 mice were mated to males of the same genotype, administered LPS with or without compound 2 and fetal head were recovered. Relative expression of Il1a (FIG. 10A), IL6 (FIG. 10B), TNF (FIG. 10C) and IL1B (FIG. 10D) mRNAs were determined in each tissue by qPCR and normalized to Actb. Data are shown as mean±SEM relative gene expression in tissue pooled from two implantation sites with n=6 dams/group. The effect of LPS and compound 2 was analyzed by Kruskal-Wallis and Mann-Whitney U-test. #* indicates significant differences between groups, p<0.05.
Animal and treatments. To analyze effects of compound 2 on LPS-induced cytokine expression in the fetal brain after inflammatory stimulus mimicking infection in utero, pregnant female C57Bl/6 female mice (mated with C57Bl/6 males) were injected with 0.5 μg lipopolysaccharide (LPS; Salmonella typhimurium; Sigma-Aldrich®, St. Louis, Mo., USA) in 200 μl PBS i.p., or PBS control, at 1100 h on gd 16.5. Mice were immediately administered compound 2 (1 mg/kg in PBS) or vehicle control (PBS+0.1% BSA) within 5 mins of LPS injection on gd 16.5, then killed 4 h later. Brain tissues were recovered by severing the fetal head from 2 fetuses from each of […] per treatment group.
Expression of inflammatory markers. Messenger RNA (mRNA) was extracted by homogenizing tissues using ceramic beads (Mo Bio) in Trizol® (Ambion® RNA, Carlsbad Calif.). […] Primer pairs specific for published cDNA sequences were designed using Primer Express® software (Applied Biosystems®, Foster City, Calif.) to quantify Il1a, Il1b, Il6 and Tnfa mRNA. […] Data were normalized to β-actin mRNA expression and expressed as ΔΔCT using the formula mRNA level=[…]. […] Data were tested for normality using a Shapiro-Wilk test then analyzed by Kruskal-Wallis and Mann-Whitney U-test since data were not normally distributed. […]

[3] = test system: pregnant C57Bl/6 mice given LPS; assay: Perinatal outcomes after maternal LPS (gestation length, perinatal survival, birth weight); type: in vivo
Description: The timing of birth (FIG. 11A); the number of viable pups per litter at birth (FIG. 11B); the proportion of pups surviving to one week (FIG. 11C), and birth weight at 12-24 h (FIG. 11D) were recorded (all mean±SEM). The number of treated dams in each group is shown in parentheses (n=10 per group, with n=48-57 pups weighed per group at birth) and data were analysed by ANOVA and post-hoc Sidak t-test; *P<0.05.
Animal and treatments. […] Mice were monitored via video recording until the time of parturition. Gestation length and perinatal survival (number of live pups at birth and % pups surviving to one week) were recorded. Pups were weighed at 12-24 h after birth.

[4] = LPS gd 16.5 + compound 2 1 mg/kg i.p. at 12 h intervals, 4 doses

Row | SMILES | behavior/locomotion activity (distance travelled, open field) [1] | expression of Il1a, Il1b and Il6 in fetal head relative to PBS control ([2]; LPS + compound 2) | expression of Il1a, Il1b and Il6 in fetal head relative to PBS control ([2]; compound 2 alone (no LPS)) | expression of Il1a, IL6, TNF and IL1B in fetal head, reduction relative to LPS alone ([2]; dams given LPS 0.5 μg i.p. gd 16.5 + compound 2 1 mg/kg, 4 h later) | LPS-induced death in the first week of life [3, 4] | LPS-induced perinatal loss (number of viable pups at birth) [3, 4] | LPS-induced prematurity (gestation length) [3, 4] | perinatal outcomes ([3]; compound 2 alone, in the absence of LPS) | pup weight at 12-24 h after birth ([3]; compound 2 with or without LPS treatment)
1 | CC(C)C[C@@H](NC(=O)[C@@H](CCC(=O)O)NC(=O)[C@H](NC(=O)[C@H](NC(=O)[C@@H](Cc1ccc(O)cc1)NC(=O)[C@H](N)CCCNC(=N)N)C(C)O)C(C)C)C(=O)N[C@H](C)C(N)=O (stereo partly drawn) [compound 1] (H-[dR][dY][dThr(3ξ)][dV][dE][dL][dA]-NH2) | normalization of the behavior/locomotion activity |  |  |  |  |  |  |  | 
2 | CC(C)C[C@@H](NC(=O)[C@@H](CCC(=O)O)NC(=O)[C@H](NC(=O)[C@H](NC(=O)[C@@H](Cc1ccc(O)cc1)NC(=O)[C@H](N)CCCNC(=N)N)C(C)O)C(C)C)C(=O)N[C@H](C)C(=O)O (stereo partly drawn) [compound 2] (H-[dR][dY][dThr(3ξ)][dV][dE][dL][dA]-OH) |  | no change | did not significantly alter | 40-60% | completely reversed | completely reversed | completely reversed | did not alter perinatal outcomes | no significant effect
